Experimental data taken from patent US20090253658A1, “Fat Accumulation Inhibitor” (priority 2006, published 2009).

Assays:
[1] = system: adiponectin concentration in blood; test: Acceleration of increase and/or inhibition of decrease of adiponectin concentration in blood (high fat feed animal test, ELISA); assay type: in vivo
Protocol: Using the sphingomyelin obtained in Example 7, an action of acceleration of increase and/or inhibition of decrease of an adiponectin concentration in blood was verified. An animal test was carried out using 8 animals per group by a group in which a high fat feed blended with sphingomyelin was fed (sphingomyelin diet group) and a group in which a high fat feed not blended with sphingomyelin was fed (high fat diet group). The high fat diet was prepared using a milk casein as a protein source and a butter oil as a lipid source. In the animal test, a feed was provided until the 4th week after rearing, and thereafter the group was divided into 5 groups, and the high fat feed or sphingomyelin-blended high fat feed was provided until the 8th week. Blood collection was carried out on the 4th week and on the 8th week, and an adiponectin concentration in blood was measured using a Mouse/Rat Adiponectin ELISA Kit (manufactured by Otsuka Pharmaceutical Co., Ltd.).

visceral fat = test: Inhibition of visceral fat accumulation (high fat feed animal test, dissection on 8th week); assay type: in vivo
Protocol: Using the sphingomyelin obtained in Example 7, an action of inhibition of visceral fat accumulation was verified. An animal test was carried out using 8 animals per group by a group in which a high fat feed blended with sphingomyelin was fed (sphingomyelin diet group) and a group in which a high fat feed not blended with sphingomyelin was fed (high fat diet group). In the animal test, the high fat feed was provided until the 4th week after rearing, and thereafter the group was divided into 5 groups, and the high fat feed or sphingomyelin-blended high fat feed was provided until the 8th week. By carrying out dissection on the 8th week, the amount of visceral fats (mesenteric, peri-testicular, perirenal, posterior abdominal) was measured.

sphingomyelin [Sphingomyelin (Example 7)]
Adiponectin concentration in blood with the lapse of time (in words) ([1]; 4th to 8th week, decreases in the high fat diet group): increases | Adiponectin concentration in blood ([1]; 4 weeks (before start of sphingomyelin-blended high fat feed)): 10.88 µg/mL | Adiponectin concentration in blood ([1]; 8 weeks (sphingomyelin-blended high fat feed from 4th to 8th week)): 15.65 µg/mL | Amount of visceral fat, Mesenteric (visceral fat; dissection on the 8th week): 2.19 g | Amount of visceral fat, Perirenal (visceral fat; dissection on the 8th week): 0.74 g | Amount of visceral fat, peri-testicular (visceral fat; dissection on the 8th week): 3.22 g | Amount of visceral fat, posterior abdominal (visceral fat; dissection on the 8th week): 2.11 g | Amount of visceral fat (in words) (visceral fat; in comparison with the high fat diet group): low values
